Results from patent US20200121652A1, “COMPOUNDS HAVING CASPASE INHIBITORY ACTIVITY, PHARMACEUTICAL AGENT CONTAINING SAID COMPOUNDS AND FOR TREATING OR PREVENTING CORNEAL ENDOTHELIAL SYMPTOMS, DISORDERS, OR DISEASES, AND APPLICATION OF SAID PHARMACEUTICAL AGENT” (The Doshisha, priority 2017, published 2020).

Assays:
Type in all cases: cell-based
[1] = test system: Fuchs' endothelial corneal dystrophy patient derived immortalized human corneal endothelial cells; assay: Phase contrast microscope observation of cell damage after TGF-β2 stimulation (Examples 4-6); conditions: then TGF-β2 10 ng/ml 24 h; for disorder in corneal endothelial cells (phase contrast microscope): pretreated 24 h
Procedure: (§1) The medium was removed from the culture dish in which Fuchs' endothelial corneal dystrophy patient derived immortalized human corneal endothelial cells were being cultured, and the cells were supplemented with 1× PBS (−) that was preheated to 37° C., and were washed. This was repeated twice. The cells were supplemented with 1× PBS (−) again and incubated for 5 minutes at 37° C. (5% CO2). After removing the PBS (−), the cells were supplemented with 0.05% Trypsin-EDTA (nacalai tesque, 32778-34) and incubated for 5 minutes at 37° C. (5% CO2). The cells were then suspended in a medium, and collected by centrifugation at 1500 rpm for 3 minutes. DMEM (nacalai tesque, 08456-36) +10% FBS (Sigma, 13H467)+1% P/S (nacalai tesque, 26252-94) was used as the medium.
Fuchs' endothelial corneal dystrophy patient derived immortalized human corneal endothelial cells (lot: iFECD3-5) were seeded on a 12-well plate at a ratio of 5.0×10^4 cells per well, and cultured for 24 hours at 37° C. (5% CO2). DMEM+10% FBS+1% P/S was used as the medium.
(§2) After 24 hours, the medium was removed, fluticasone furoate (AXON MEDCHEM, 1172) was added so that the final concentration was each 0.0001, 0.0003, 0.001, 0.003, 0.01, 0.03, 0.1, 0.3, 1, and 3 μM, and the cells were cultured for 24 hours. DMEM+2% FBS+1% P/S was used as the medium.
After 24 hours, the medium was removed, fluticasone furoate was added together with 10 ng/ml Transforming Growth Factor-82 Human recombinant (WAKO, 200-19911) so that the final concentration was each 0.0001, 0.0003, 0.001, 0.003, 0.01, 0.03, 0.1, 0.3, 1, and 3 μM, and the cells were cultured for 24 hours. Medium: DMEM+2% FBS+1% P/S
After 24 hours, cell morphology and apoptosis were observed using a phase difference microscope.
In this example, TGF-β inhibiting activity of ZK216348 (AXON MEDCHEM, AXON2239), which is one of SEGRMs, was tested. The operation by a phase contrast microscope was carried out in the same manner as Example 4. 10 μM of ZK216348 was used as the final concentration.
After 24 hours, the medium was removed, ZK216348 was added together with 10 ng/ml Transforming Growth Factor-β2 Human recombinant (WAKO, 200-19911) so that the final concentration was […], and the cells were cultured for 24 hours. DMEM+2% FBS+1% P/S was used as the medium.

[2] = test system: Fuchs' endothelial corneal dystrophy patient derived immortalized human corneal endothelial cells; assay: Cell Titer-Glo Luminescent Cell Viability Assay (Examples 4-5); conditions: all concentrations of 0.0001, 0.0003, 0.001, 0.003, 0.01, 0.03, 0.1, 0.3, 1, and 3 μM
Procedure: as §1
Fuchs' endothelial corneal dystrophy patient derived immortalized human corneal endothelial cells (lot: iFECD3-5) were seeded on a 96-well plate at a ratio of 7×10^3 cells per well, and cultured at 37° C. (5% CO2) until reaching confluence. DMEM+10% FBS+1% P/S was used as the medium. […]
Cell viability was analyzed using Cell Titer-Glo Luminescent Cell Viability Assay by the following procedure.
The medium was discarded to achieve 50 μl per well. […] After being left still, 80 μl was transferred to Assay plate (Corning, 3912, Assay plate 96 well, white polystyrene) and […] was measured using GloMax-Multi Detection System (Promega, E7051). […]

[3] = test system: Fuchs' endothelial corneal dystrophy patient derived immortalized human corneal endothelial cells; assay: Caspase-Glo 3/7 Assay after pretreatment and TGF-β2 stimulation (Examples 4-5); conditions: for activity of Caspase 3/7: TGF-β2 10 ng/ml 24 h; for ratio of (caspase 3/7 activity)/(cell viability): agent concentration 0.0001 to 3 μM (FIG. 12)
Procedure: as §1
Fuchs' endothelial corneal dystrophy patient derived immortalized human corneal endothelial cells (lot: iFECD3-5) were seeded on a 96-well plate at a ratio of 7×10^3 cells per well, and cultured at 37° C. (5% CO2) until reaching confluence. DMEM+10% FBS+1% P/S was used as the medium.
as §2
After 24 hours, the medium was removed, 10 ng/ml Transforming Growth Factor-82 Human recombinant (WAKO, 200-19911) and fluticasone furoate were added so that the final concentration was each 0.0001, 0.0003, 0.001, 0.003, 0.01, 0.03, 0.1, 0.3, 1, and 3 μM, and the cells were cultured for 24 hours. DMEM+2% FBS+1% P/S was used as the medium.
After observation, measurement of caspase 3/7 activity by Caspase-Glo 3/7 Assay was carried out with the following procedure.
The medium was discarded to achieve 50 μl per well. 50 μl/well of CaspaseGlo 3/7 Assay Reagent (mixture of Caspase-Glo 3/7 Assay Buffer and Caspase-Glo 3/7 Assay Substrate) (Promega, G8091) solution was added so as to achieve 1:1 with the medium. The operations hereafter were carried out while being shaded. A shaker was used to mix the content well for 2 minutes at about 120 r/min to then be left still for 40 minutes at room temperature. After being left still, 80 μl was transferred to Assay plate (Corning, 3912, Assay plate 96 well, white polystyrene) and […] was measured using GloMax-Multi Detection System (Promega, E7051). Furthermore, 10 μM Z-VD-FMK (WAKO, 262-02061), which is a caspase inhibitor, was used as the positive control.
In this example, TGF-β inhibiting activity of fluticasone propionate (AXON MEDCHEM, 1404), which is one of SEGRAs, was tested. The test was conducted by the same procedure as Example 4.

Row | Compound | free cells and disorder in corneal endothelial cells (phase contrast microscope) ([1]; pretreated, final concentration 10 μM) | cell viability [2] | disorder in corneal endothelial cells (phase contrast microscope) ([1]; 0.0001 and 0.0003 μM) | disorder in corneal endothelial cells (phase contrast microscope) ([1]; 0.001, 0.003, 0.01, 0.03, 0.1, 0.3, 1, and 3 μM) | activity of Caspase 3/7 ([3]; 0.003, 0.01, 0.03, 0.1, 0.3, 1, and 3 μM) | activity of Caspase 3/7 ([3]; in the order of 0.0001, 0.0003, and 0.001 μM) | ratio of (caspase 3/7 activity)/(cell viability) [3] | disorder in corneal endothelial cells (phase contrast microscope) ([1]; 0.0001, 0.0003, 1, and 3 μM) | disorder in corneal endothelial cells (phase contrast microscope) ([1]; 0.001, 0.003, 0.01, 0.03, and 0.1 μM) | activity of Caspase 3/7 ([3]; 0.01, 0.03, 0.1, 0.3, and 1 μM) | activity of Caspase 3/7 ([3]; in the order of 0.0001, 0.0003, 0.001, and 0.003 μM)
1 | Cc1noc(=O)c2ccc(NC(=O)C(O)(CC(C)(C)c3cccc4c3OCC4)C(F)(F)F)cc12 (single isomer, unassigned; (+)) [ZK216348, (+)-4-(2,3-dihydro-1-benzofuran-7-yl)-2-hydroxy-4-methyl-N-(4-methyl-1-oxo-2,3-benzoxazine-6-yl)-2-(trifluoromethyl)pentanamide] | free cells were decreased and a disorder in corneal endothelial cells was suppressed | – | – | – | – | – | – | – | – | – | –
2 | C[C@@H]1C[C@H]2[C@@H]3C[C@H](F)C4=CC(=O)C=C[C@]4(C)[C@@]3(F)[C@@H](O)C[C@]2(C)[C@@]1(OC(=O)c1ccco1)C(=O)SCF [fluticasone furoate] | – | no significant difference from the Control group | effect of suppressing a disorder in corneal endothelial cells was confirmed | effectively suppressed | almost the same as those in the Control group | decreased | below 0.8 | – | – | – | –
3 | CCC(=O)O[C@]1(C(=O)SCF)[C@H](C)C[C@H]2[C@@H]3C[C@H](F)C4=CC(=O)C=C[C@]4(C)[C@@]3(F)[C@@H](O)C[C@@]21C [fluticasone propionate] | – | no significant difference from the Control group | – | – | – | – | below 0.8 | effect of suppressing a disorder in corneal endothelial cells was confirmed | effectively suppressed | almost the same as those in the Control group | decreased
